The values that follow come from US8703796B2, “3H-imidazo [4, 5-B] pyridine-6-carboxamides as anti-inflammatory agents” (Boehringer Ingelheim International GmbH, priority 2008, dated 2014).

SMILES strings stand for the structures. Where a name gives a salt, the structure may show the parent alone.

For orientation: inhibition means how much of the control response was suppressed.

The experiment concerns the target T1, recombinant human mPGES-1 (Homo sapiens, UniProt O14684).
T1 construct: made in house; host or cells: Rosetta E. coli (microsomal/membrane fraction)
T1 sequence (O14684 1-152): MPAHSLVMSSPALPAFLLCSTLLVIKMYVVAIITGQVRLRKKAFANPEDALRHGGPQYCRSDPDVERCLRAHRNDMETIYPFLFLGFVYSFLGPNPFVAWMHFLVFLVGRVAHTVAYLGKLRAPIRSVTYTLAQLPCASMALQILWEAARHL
The experiment is described as follows: mPGES-1 inhibition, HTRF detection of PGE2. The experiment is classed as biochemical. The method in brief: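 Bacterial microsomes with GSH-containing phosphate buffer at pH 7.4 are exposed to test compounds for 25 minutes before a one-minute PGH2 conversion. The quenched, 750-fold diluted mixture is analysed by time-resolved FRET for PGE2.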
Background: In TR-FRET formats the signal depends on donor and acceptor labels being close together.

As for `Cn1c(Nc2c(Cl)cccc2Cl)nc2cc(C(=O)NCc3ccccc3C(F)(F)F)cnc21` [Example 468, 2-(2,6-Dichlorophenylamino)-3-methyl-N-(2-trifluoromethyl-benzyl)-3H-imidazo[4,5-b]pyridine-6-carboxamide], the inhibition at 10 µM amounted to 98%.

For `CC1(C)CCC(NC(=O)c2cnc3[nH]c(Nc4c(Cl)cccc4Cl)nc3c2)CC1` [Example 429, 2-(2,6-Dichlorophenylamino)-N-(4,4-dimethylcyclohexyl)-3H-imidazo[4,5-b]pyridine-6-carboxamide], the inhibition at 10 µM came out at 97%.

As for `Cn1c(Nc2c(Cl)cnc(Cl)c2Cl)nc2cc(C(=O)N[C@H]3CC[C@H](C(F)(F)F)CC3)c(OCC(F)F)nc21` [Example 779, 2-(2,3,5-Trichloro-pyridin-4-yl-amino)-5-(2,2-difluoro-ethoxy)-N-(trans-4-trifluoromethyl-cyclohexyl)-3-methyl-3H-imidazo[4,5-b]pyridine-6-carboxamide], the inhibition at 1 µM is 96%.

Turning to `Cc1ccnc(Br)c1Nc1nc2cc(C(=O)N[C@H]3CC[C@H](C(F)(F)F)CC3)c(OCC(F)F)nc2n1C` [Example 786, 2-(2-Bromo-4-methyl-pyridin-3-ylamino)-5-(2,2-difluoro-ethoxy)-N-(trans-4-trifluoromethyl-cyclohexyl)-3-methyl-3H-imidazo[4,5-b]pyridine-6-carboxamide], the inhibition at 10 µM is 92%.

As for `CCCCC[C@@H](C)NC(=O)c1cnc2c(c1)nc(Nc1c(Cl)cccc1Cl)n2C` [Example 449, (R)-2-(2,6-Dichlorophenylamino)-N-(hept-2-yl)-3-methyl-3H-imidazo[4,5-b]pyridine-6-carboxamide], the inhibition at 10 µM was 98%.

With `O=C(N[C@H]1CC[C@H](C(F)(F)F)CC1)c1cc2nc(Nc3c(Cl)cc(F)cc3Cl)[nH]c2nc1OCC(F)F` [Example 823, 2-(2,6-Dichloro-4-fluoro-phenylamino)-5-(2,2-difluoro-ethoxy)-N-(trans-4-trifluoromethyl-cyclohexyl)-3H-imidazo[4,5-b]pyridine-6-carboxamide], the inhibition at 10 µM came out at 91%.

With `Cn1c(Nc2c(Cl)cc(F)cc2Cl)nc2cc(C(=O)NCC(F)(F)C(F)(F)C(F)(F)C(F)(F)F)c(OCC(F)(F)F)nc21` [Example 873, 2-(2,6-Dichloro-4-fluoro-phenylamino)-5-(2,2,2-trifluoro-ethoxy)-N-(2,2,3,3,4,4,5,5,5-nonafluoropentyl)-3-methyl-3H-imidazo[4,5-b]pyridine-6-carboxamide], the inhibition at 10 µM was determined as 100%.

`Cn1c(Nc2c(Cl)cc(F)cc2Cl)nc2cc(C(=O)NCc3ccccc3C(F)(F)F)c(OCC(F)F)nc21` [Example 871, 2-(2,6-Dichloro-4-fluoro-phenylamino)-5-(2,2-difluoro-ethoxy)-N-(2-trifluoromethyl-benzyl)-3-methyl-3H-imidazo[4,5-b]pyridine-6-carboxamide]: the inhibition at 10 µM stood at 100%.

On to `Cn1c(Nc2c(Cl)cncc2Cl)nc2cc(C(=O)Nc3ccc(Br)cc3)c(OCC(F)F)nc21` [Example 837, 2-(3,5-Dichloro-pyridin-4-ylamino)-5-(2,2-difluoro-ethoxy)-N-(4-bromo-phenyl)-3-methyl-3H-imidazo[4,5-b]pyridine-6-carboxamide], for which the inhibition at 10 µM is 96%.

`Cn1c(Nc2c(F)cccc2Cl)nc2cc(C(=O)Nc3ccc(Br)cc3)cnc21` [Example 480, N-(4-Bromophenyl)-2-(2-chloro-6-fluorophenylamino)-3-methyl-3H-imidazo[4,5-b]pyridine-6-carboxamide]: the inhibition at 10 µM amounted to 100%.

On to `Cn1c(Nc2c(Cl)cncc2Cl)nc2cc(C(=O)NCc3ncccc3C(F)(F)F)c(OCCF)nc21` [Example 835, 2-(3,5-Dichloro-pyridin-4-ylamino)-5-(2-fluoro-ethoxy)-N-((3-trifluoromethyl-pyridin-2-yl)-methyl)-3-methyl-3H-imidazo[4,5-b]pyridine-6-carboxamide], for which the inhibition at 10 µM was found to be 95%.

For `Cn1c(Nc2c(Cl)cncc2Cl)nc2cc(C(=O)NCC(F)(F)C(F)(F)C(F)(F)C(F)(F)F)c(OCC(F)(F)F)nc21` [Example 850, 2-(3,5-Dichloro-pyridin-4-ylamino)-5-(2,2,2-trifluoro-ethoxy)-N-(2,2,3,3,4,4,5,5,5-nonafluoro-pentyl)-3-methyl-3H-imidazo[4,5-b]pyridine-6-carboxamide], the inhibition at 10 µM came out at 99%.

Consider `O=C(Nc1cc(C(F)(F)F)ccn1)c1cc2nc(Nc3c(Cl)cncc3Cl)[nH]c2nc1OCC(F)(F)F` [Example 857, 2-(3,5-Dichloro-pyridin-4-ylamino)-5-(2,2,2-trifluoro-ethoxy)-N-(4-trifluoromethyl-pyridin-2-yl)-3H-imidazo[4,5-b]pyridine-6-carboxamide], for which the inhibition at 10 µM was found to be 99%.

With `CCC1CCC(NC(=O)c2cnc3c(c2)nc(Nc2c(Cl)cccc2Cl)n3C)CC1` (centres unmarked) [Example 438, 2-(2,6-Dichlorophenylamino)-N-(4-ethylcyclohexyl)-3-methyl-3H-imidazo[4,5-b]pyridine-6-carboxamide], the inhibition at 10 µM worked out at 100%.

Take `Cn1c(Nc2c(Cl)cncc2Cl)nc2cc(C(=O)Nc3cc(C(F)(F)F)ccn3)c(OCCF)nc21` [Example 831, 2-(3,5-Dichloro-pyridin-4-ylamino)-5-(2-fluoro-ethoxy)-N-(4-trifluoromethyl-pyridin-2-yl)-3-methyl-3H-imidazo[4,5-b]pyridine-6-carboxamide]: the inhibition at 10 µM was 100%.

As for `O=C(NCc1ccccc1C(F)(F)F)c1cc2nc(Nc3c(Cl)cc(F)cc3Cl)[nH]c2nc1OCC(F)(F)F` [Example 828, 2-(2,6-Dichloro-4-fluoro-phenylamino)-5-(2,2,2-trifluoro-ethoxy)-N-(2-trifluoromethyl-benzyl)-3H-imidazo[4,5-b]pyridine-6-carboxamide], the inhibition at 10 µM was found to be 98%.

As for `Cn1c(Nc2c(Cl)cncc2Cl)nc2cc(C(=O)N[C@H]3CC[C@H](C(F)(F)F)CC3)c(OCCF)nc21` [Example 833, 2-(3,5-Dichloro-pyridin-4-ylamino)-5-(2-fluoro-ethoxy)-N-(trans-4-trifluoromethyl-cyclohexyl)-3-methyl-3H-imidazo[4,5-b]pyridine-6-carboxamide], the inhibition at 10 µM was determined as 100%.

As for `COc1nc2c(cc1C(=O)Nc1cc(C(F)(F)F)ccn1)nc(Nc1c(Cl)cccc1Cl)n2C` [Example 386, 2-(2,6-Dichloro-phenylamino)-5-methoxy-3-methyl-N-(4-trifluoromethyl-pyridin-2-yl)-3H-imidazo[4,5-b]pyridine-6-carboxamide formate], the inhibition at 10 µM is 99%.

For the molecule `COc1nc2c(cc1C(=O)Nc1ccc(Br)cc1)nc(Nc1c(Cl)cccc1Cl)n2C` [Example 377, N-(4-Bromophenyl)-2-(2,6-dichlorophenylamino)-5-methoxy-3-methyl-3H-imidazo[4,5-b]pyridine-6-carboxamide], the inhibition at 10 µM was 100%.

Take `CCOc1nc2[nH]c(Nc3c(Cl)cncc3Cl)nc2cc1C(=O)Nc1ccc(Br)cc1` [Example 856, 2-(3,5-Dichloro-pyridin-4-ylamino)-5-ethoxy-N-(4-bromo-phenyl)-3H-imidazo[4,5-b]pyridine-6-carboxamide]: the inhibition at 10 µM amounted to 93%.

For the molecule `CC(C)n1c(Nc2ccccc2Cl)nc2cc(C(=O)NC3CCC(C)(C)CC3)cnc21` [Example 541, 2-(2-Chlorophenylamino)-N-(4,4-dimethylcyclohexyl)-3-isopropyl-3H-imidazo[4,5-b]pyridine-6-carboxamide hydrochloride], the inhibition at 10 µM amounted to 74%.

Consider `O=C(NCc1ncccc1C(F)(F)F)c1cc2nc(Nc3c(Cl)cc(F)cc3Cl)[nH]c2nc1OCC(F)(F)F` [Example 830, 2-(2,6-Dichloro-4-fluoro-phenylamino)-5-(2,2,2-trifluoro-ethoxy)-N-((3-trifluoromethyl-pyridin-2-yl)-methyl)-3H-imidazo[4,5-b]pyridine-6-carboxamide], for which the inhibition at 10 µM turned out to be 98%.

In the case of `O=C(NCC(F)(F)C(F)(F)C(F)(F)C(F)(F)F)c1cc2nc(Nc3c(Cl)cncc3Cl)[nH]c2nc1OCC(F)(F)F` [Example 854, 2-(3,5-Dichloro-pyridin-4-ylamino)-5-(2,2,2-trifluoro-ethoxy)-N-(2,2,3,3,4,4,5,5,5-nonafluoro-pentyl)-3H-imidazo[4,5-b]pyridine-6-carboxamide], the inhibition at 10 µM came to 96%.
